This is an account of results in US20260167656A1, “PHOSPHORAMIDATE COMPOUNDS AND USES THEREOF” (ALLORION THERAPEUTICS INC, priority 2022, published 2026).

Bounds are passed on as bounds.

Assay [1] deals with non-small cell lung cancer cell line H460. As to the kind of experiment: In vitro human cancer cell line cytotoxicity (proliferation) assay in H460, CellTiter-Glo, 72 hours. In kind it is cell-based. Particulars: DMSO condition (no AKR1C3 inhibitor), read-out: CTG H460: Avg IC50 (nM) [Assay Condition: DMSO]. In a few lines: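 H460 cells were seeded at 3×10^3 per well and grown 24 h at 37 °C, 5% CO2 before compound addition from 10 mM DMSO stocks. After 72 h further incubation, viability was measured by CellTiter-Glo, and IC50 values in nM were derived from the proliferation data.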

The test system is the same in assay [2]. Kind of assay: H460 proliferation assay in the presence of 3 uM ASP9521 (AKR1C3 specific inhibitor). The format is cell-based, human. The settings on record: H460 cells, CellTiter-Glo, 72 hours, in the presence of 3 uM ASP9521 added 4 hours prior to compounds; read-out: CTG H460: Avg IC50 (nM) [Assay Condition: ASP9521]. In a few lines:
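H460 cells pre-incubated 24 h, then exposed to compounds for 72 h at 37 °C, 5% CO2. Viability read by CellTiter-Glo. ASP9521 (3 uM, AKR1C3 inhibitor) added 4 h before compounds.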

The mark [3] stands for this setting: Homo sapiens, NCI-H460, 72 h, H460 cells.

`O=[N+]([O-])c1ccc2c(c1Oc1cccc(-c3ccccc3)c1)CCC2OP(=O)(N1CC1)N1CC1` (single isomer, unassigned) [Example 31]: the half-maximal inhibitory concentration (IC50) was below 10 nM in assay [1] (H460 cells) and 1550 nM in assay [2].

As to `O=C1OCCN1c1ccc(Oc2cc3c(cc2[N+](=O)[O-])CCC3OP(=O)(N2CC2)N2CC2)cc1` (stereo not drawn) [Example 164], the concentration for half-maximal inhibition (IC50) in assay [1] (setting [3]) was below 10 nM; in assay [2], 237 nM.

Regarding `CNC(=O)c1ccc(Oc2c([N+](=O)[O-])ccc3c2CCC3OP(=O)(N2CC2)N2CC2)cc1` (stereo not drawn) [Example 37], the IC50 in assay [1] (H460 cells) is below 10 nM; in assay [2], 178 nM.

For `O=[N+]([O-])c1ccc2c(c1Oc1ccc(-c3ccccc3)nc1)CCC2OP(=O)(N1CC1)N1CC1` (stereo not drawn) [Example 50], the 50% inhibitory concentration (IC50) in assay [1] (setting [3]) was below 10 nM; in assay [2], 335 nM.

Consider `Cc1ccn(-c2cc(Oc3c([N+](=O)[O-])ccc4c3CC[C@@H]4OP(=O)(N3CC3)N3CC3)ccc2F)n1` [Example 439], for which the half-inhibitory concentration (IC50) in assay [1] (setting [3]) was below 10 nM; in assay [2] it was 2090 nM.

Regarding `CN1CCOc2ccc(Oc3cc4c(cc3[N+](=O)[O-])CCC4OP(=O)(N3CC3)N3CC3)cc2C1=O` (stereo not drawn) [Example 159], the half-maximal inhibitory concentration (IC50) was at least 100 nM in assay [1] (H460 cells) and above 10000 nM in assay [2].

Take `O=[N+]([O-])c1ccc2c(c1Oc1cccc(-n3ncnn3)c1)CC[C@H]2OP(=O)(N1CC1)N1CC1` [Example 437]: the concentration for half-maximal inhibition (IC50) is below 10 nM in assay [1] (setting [3]) and 235 nM in assay [2].

In the case of `Cc1csc(-c2ccc(Oc3c([N+](=O)[O-])ccc4c3CCC4OP(=O)(N3CC3)N3CC3)cc2)n1` (stereo not drawn) [Example 289], the half-inhibitory concentration (IC50) is below 10 nM in assay [1] (H460 cells) and 1090 nM in assay [2].

With `O=[N+]([O-])c1ccc2c(c1Oc1cccc(-n3ccc(F)n3)c1)CC[C@@H]2OP(=O)(N1CC1)N1CC1` [Example 444], the IC50 in assay [1] (setting [3]) is below 10 nM; in assay [2], 192 nM.

As for `Cn1cnc2cc(Oc3c([N+](=O)[O-])ccc4c3CCC4OP(=O)(N3CC3)N3CC3)ccc21` (stereo not drawn) [Example 390], the IC50 is below 10 nM in assay [1] (Homo sapiens, NCI-H460, H460 cells) and 1410 nM in assay [2].

As to `Cn1ccc2ccc(Oc3cc4c(cc3[N+](=O)[O-])CCC4OP(=O)(N3CC3)N3CC3)cc2c1=O` (stereo not drawn) [Example 156], the half-inhibitory concentration (IC50) was 10 to 50 nM in assay [1] (setting [3]) and 895 nM in assay [2].

On to `Cc1cncc(-c2ccc(Oc3c([N+](=O)[O-])ccc4c3CCC4OP(=O)(N3CC3)N3CC3)cc2)n1` (racemic) [Example 281], for which the IC50 was below 10 nM in assay [1] (H460 cells) and 787 nM in assay [2].

As to `O=[N+]([O-])c1ccc2c(c1Oc1ccc(O)c(-c3ccc(F)cn3)c1)CCC2OP(=O)(N1CC1)N1CC1` (stereo not drawn) [Example 333], the IC50 was below 10 nM in assay [1] (H460 cells) and 1310 nM in assay [2].

Take `O=C(NC1CC1)c1ccc(Oc2cc3c(cc2[N+](=O)[O-])CCC3OP(=O)(N2CC2)N2CC2)cc1` (single isomer, unassigned) [Example 173]: the values for the IC50 in assay [1] (H460 cells) and in assay [2] were below 10 nM and 2980 nM, respectively.

With `O=[N+]([O-])c1ccc2c(c1Oc1cccc(-n3ccc(F)n3)c1)CC[C@H]2OP(=O)(N1CC1)N1CC1` [Example 445], the half-inhibitory concentration (IC50) in assay [1] (setting [3]) is below 10 nM; in assay [2], 357 nM.

As to `COc1ccc(Oc2c([N+](=O)[O-])ccc3c2CC[C@@H]3OP(=O)(N2CC2)N2CC2)cc1OCC1CC1` [Example 502], the IC50 in assay [1] (setting [3]) is below 10 nM; in assay [2], 546 nM.

Take `CN1Cc2cc(Oc3cc4c(cc3[N+](=O)[O-])CCC4OP(=O)(N3CC3)N3CC3)ccc2C1=O` (stereo not drawn) [Example 155]: the IC50 in assay [1] (H460 cells) was below 10 nM; in assay [2] it was 128 nM.

With `O=c1ccc(Oc2c([N+](=O)[O-])ccc3c2CCC3OP(=O)(N2CC2)N2CC2)cn1C1CC1` (stereo not drawn) [Example 511], the IC50 was below 10 nM in assay [1] (H460 cells) and 429 nM in assay [2].

With `CNC(=O)c1ccc(Oc2cc3c(cc2[N+](=O)[O-])CCC3OP(=O)(N2CC2)N2CC2)cc1` (single isomer, unassigned) [Example 150], the concentration for half-maximal inhibition (IC50) was below 10 nM in assay [1] (setting [3]) and 297 nM in assay [2].

`CC(C)COc1cc(Oc2c([N+](=O)[O-])ccc3c2CC[C@@H]3OP(=O)(N2CC2)N2CC2)ccc1F` [Example 498]: the IC50 is below 10 nM in assay [1] (setting [3]) and 899 nM in assay [2].

With `Cc1ncn(-c2cc(Oc3c([N+](=O)[O-])ccc4c3CC[C@@H]4OP(=O)(N3CC3)N3CC3)ccc2F)n1` [Example 440], the figures for the IC50 in assay [1] (setting [3]) and in assay [2] were below 10 nM and 897 nM, respectively.

Regarding `O=[N+]([O-])c1cc2c(cc1Oc1ccc(-c3ccccn3)cc1)C(OP(=O)(N1CC1)N1CC1)CC2` (stereo not drawn) [Example 517], the IC50 in assay [1] (H460 cells) is below 10 nM; in assay [2] it was 2050 nM.

As to `O=[N+]([O-])c1ccc2c(c1Oc1cccc(-n3cc(F)cn3)c1)CCC2OP(=O)(N1CC1)N1CC1` (stereo not drawn) [Example 83], the IC50 in assay [1] (H460 cells) was below 10 nM; in assay [2] it was 1170 nM.

Regarding `CSc1ccc(Oc2c([N+](=O)[O-])ccc3c2CC[C@@H]3OP(=O)(N2CC2)N2CC2)cc1-c1nc(C)ns1` [Example 376], the IC50 is below 10 nM in assay [1] (setting [3]) and 1850 nM in assay [2].

As for `O=[N+]([O-])c1ccc2c(c1Oc1cccc(-c3cn[nH]c3)c1)CC[C@@H]2OP(=O)(N1CC1)N1CC1` [Example 369], the half-maximal inhibitory concentration (IC50) is below 10 nM in assay [1] (setting [3]) and 938 nM in assay [2].

As to `O=[N+]([O-])c1ccc2c(c1Oc1cccc(OCC3CC3)c1)CC[C@@H]2OP(=O)(N1CC1)N1CC1` [Example 481], the half-inhibitory concentration (IC50) is below 10 nM in assay [1] (setting [3]) and 1120 nM in assay [2].

For the compound `Cn1ccc2cc(Oc3c([N+](=O)[O-])ccc4c3CC[C@H]4OP(=O)(N3CC3)N3CC3)ccc21` [Example 386], the results for the IC50 in assay [1] (setting [3]) and in assay [2] were below 10 nM and 1410 nM, respectively.

As to `C[C@@H]1CN(C(=O)c2cccc(Oc3c([N+](=O)[O-])ccc4c3CC[C@H]4OP(=O)(N3CC3)N3CC3)c2)C[C@H](C)O1` [Example 248], the IC50 in assay [1] (H460 cells) is below 10 nM; in assay [2] it was 1650 nM.

For the compound `COc1cc(OCC2CC2)cc(Oc2c([N+](=O)[O-])ccc3c2CC[C@@H]3OP(=O)(N2CC2)N2CC2)c1` [Example 501], the 50% inhibitory concentration (IC50) in assay [1] (setting [3]) is below 10 nM; in assay [2], 1080 nM.

`Cn1cc(-c2ccc(Oc3cc4c(cc3[N+](=O)[O-])CCC4OP(=O)(N3CC3)N3CC3)cc2)cn1` (stereo not drawn) [Example 180]: the values for the half-inhibitory concentration (IC50) in assay [1] (setting [3]) and in assay [2] were below 10 nM and 1950 nM, respectively.

As to `O=[N+]([O-])c1ccc2c(c1Oc1cccc(-c3ccc(F)cc3)c1)CC[C@@H]2OP(=O)(N1CC1)N1CC1` [Example 298], the IC50 in assay [1] (setting [3]) is below 10 nM; in assay [2], 1690 nM.

As to `O=[N+]([O-])c1ccc2c(c1Oc1cncc(-c3ccccc3)c1)CCC2OP(=O)(N1CC1)N1CC1` (stereo not drawn) [Example 311], the IC50 is below 10 nM in assay [1] (setting [3]) and 485 nM in assay [2].

For `CN1Cc2ccc(Oc3c([N+](=O)[O-])ccc4c3CCC4OP(=O)(N3CC3)N3CC3)cc2C1=O` (stereo not drawn) [Example 24], the 50% inhibitory concentration (IC50) in assay [1] (H460 cells) was below 10 nM; in assay [2], 916 nM.

For `O=[N+]([O-])c1ccc2c(c1Oc1ccc(S(=O)(=O)C3CC3)cc1)CC[C@@H]2OP(=O)(N1CC1)N1CC1` [Example 512], the IC50 in assay [1] (setting [3]) was below 10 nM; in assay [2] it was 83.3 nM.

`O=[N+]([O-])c1ccc2c(c1Oc1cccc(OC(F)(F)F)c1)CC[C@H]2OP(=O)(N1CC1)N1CC1` [Example 450]: the results for the 50% inhibitory concentration (IC50) in assay [1] (H460 cells) and in assay [2] were below 10 nM and 1060 nM, respectively.

`O=[N+]([O-])c1ccc2c(c1Oc1cccc(-n3cncn3)c1)CC[C@@H]2OP(=O)(N1CC1)N1CC1` [Example 435]: the half-maximal inhibitory concentration (IC50) is below 10 nM in assay [1] (setting [3]) and 482 nM in assay [2].

Consider `O=[N+]([O-])c1cc2c(cc1Oc1ccc(-c3ccccn3)cc1)C(OP(=O)(N1CC1)N1CC1)CC2` (single isomer, unassigned) [Example 189], for which the concentration for half-maximal inhibition (IC50) is below 10 nM in assay [1] (H460 cells) and 1190 nM in assay [2].

Consider `O=[N+]([O-])c1ccc2c(c1Oc1ccc(OC3CCCC3)cc1)CCC2OP(=O)(N1CC1)N1CC1` (stereo not drawn) [Example 490], for which the IC50 in assay [1] (H460 cells) was below 10 nM; in assay [2] it was 788 nM.

For `CC(OP(=O)(N1CC1)N1CC1)c1cc(Oc2ccc(C(=O)N(C)C)cc2)c([N+](=O)[O-])cc1Cl` (stereo not drawn) [Example 9], the IC50 in assay [1] (setting [3]) was below 10 nM; in assay [2], 1720 nM.

Regarding `CC(OP(=O)(N1CC1)N1CC1)c1ccc([N+](=O)[O-])c(Cn2ccc(=O)cc2)c1` (stereo not drawn) [Example 4], the IC50 in assay [1] (setting [3]) is at least 100 nM; in assay [2], above 10000 nM.

For `O=[N+]([O-])c1ccc2c(c1Oc1ccc(F)c(-c3ccc(F)cn3)c1)CCC2OP(=O)(N1CC1)N1CC1` (stereo not drawn) [Example 328], the IC50 in assay [1] (H460 cells) was below 10 nM; in assay [2] it was 4230 nM.

Turning to `O=[N+]([O-])c1ccc2c(c1Oc1ccc(-c3ccc(F)cn3)c(F)c1)CCC2OP(=O)(N1CC1)N1CC1` (stereo not drawn) [Example 29], the IC50 in assay [1] (setting [3]) is below 10 nM; in assay [2], 1220 nM.

With `O=[N+]([O-])c1ccc2c(c1Oc1cccc(-c3cnn(C4CC4)c3)c1)CCC2OP(=O)(N1CC1)N1CC1` (stereo not drawn) [Example 95], the IC50 is 50 to 100 nM in assay [1] (H460 cells) and 1310 nM in assay [2].

`CN1Cc2ccc(Oc3cc4c(cc3[N+](=O)[O-])OCCC4OP(=O)(N3CC3)N3CC3)cc2C1=O` (single isomer, unassigned) [Example 202]: the values for the IC50 in assay [1] (H460 cells) and in assay [2] were below 10 nM and 1390 nM, respectively.

For `O=[N+]([O-])c1ccc2c(c1Oc1ccc(-c3ccccc3)cc1)CCC2OP(=O)(N1CC1)N1CC1` (single isomer, unassigned) [Example 20], the IC50 in assay [1] (H460 cells) is below 10 nM; in assay [2], 1190 nM.
